{"source": "patent US20170035806A1", "about": "“COMPOSITION FOR PROPHYLAXIS AND TREATMENT OF BONE DISORDERS” (Chemische Fabrik Budenheim KG, priority 2014, published 2017)", "assay_type_in_all_cases": "cell-based, Human", "key": {"SaOS-2 cells [1]": {"test_system": "SaOS-2 cells", "test": "Number of SaOS-2 cells per well (FIG. 3)", "details": "for effect on number of SaOS-2 cells per well: polyP 50 μM where present", "procedure": "Only at a very high concentration, LaCl3 caused a strong drop of SaOS-2 cell number.\n(§1) Human osteogenic sarcoma SaOS-2 cells are cultured in McCoy's medium (Biochrom, Berlin; Germany) containing 5 mM Na-phosphate and 1 mM CaCl2, supplemented with 15% heat inactivated fetal calf serum (FCS), Na-pyruvate (1 mM), Ca(NO3)2 (0.5 mM), penicillin (100 U/ml), and streptomycin (100 μg/ml), in 6-well plates (surface area 9.46 cm^2; Orange Scientifique, Braine-l'Alleud; Belgium) in a humidified incubator at 37° C. and 5% CO2. Routinely, 2×10^4 cells are added per well (total volume 3 ml)."}, "SaOS-2 cells [2]": {"test_system": "SaOS-2 cells", "test": "HA mineralization with LaCl3 / polyP, Alizarin Red S OD 570 nm (FIG. 5, 6)", "procedure": "The cells were grown for 4 days in the absence of the activation cocktail (AC) and then for further 7 days (i) in the absence or (ii) in the presence of the activation cocktail with increasing concentrations of LaCl3 without (A) or with (B) 50 μM polyP (polyP•La complex). At the end of the incubation period, HA mineralization was determined by incubation of the cultures with Alizarin Red S in the spectrophotometric assay. […] The OD values at 570 nm measured in the spectrophotometric assay in the absence of the activation cocktail had been subtracted from the OD values at 570 nm measured in the presence of the activation cocktail, and the HA formation in the absence of LaCl3 and polyP (FIG. 5 A) was set to 100%.\nThe data shown in FIG. 5 had been normalized by the number of cells which had been determined in parallel assays. […] The HA formation in the absence of LaCl3 and polyP (FIG. 6 A) was set to 100%.\nSimilar results were obtained if the values were normalized by cell number (FIG. 6)."}, "SaOS-2 cells [3]": {"test_system": "SaOS-2 cells", "test": "MTT colorimetric proliferation/viability assay", "details": "tested concentration range of 0.3 to 30 μM; Me = Gd", "procedure": "In this assay Me was Gd. The recordings of developed formazan dye in the control (filled bar) were set to 100%. The results are expressed as means (n=10 experiments each)±SEM.\nThe effects of polyP•Me as well as of the single components polyP and MeCl3 on proliferation/viability of SaOS-2 cells were determined by applying the MMT colorimetric assay (MMT=3-(4,5-dimethylthiazol-2-yl)-2,5-diphenyltetrazolium bromide).\nas §1\nSaOS-2 cells are seeded at a density of 2×10^4 cells per 3-ml well in a 24-multi-well plate (Orange Scientifique) and cultured for 3 days in McCoy's medium/15% FCS. Increasing concentrations of MeCl3, polyP or polyP•Me are added to the cultures. After incubation, cell proliferation is determined applying the colorimetric method based on the tetrazolium salt […]."}, "SaOS-2 cells [4]": {"test_system": "SaOS-2 cells", "test": "HA mineralization, Alizarin Red S staining and spectrophotometric assay (FIG. 4)", "details": "5 μM, Me = Gd", "procedure": "In this assay Me was Gd. The cells were incubated with 5 μM of each of the compounds. FIG. 4 A: The cells were grown for 7 d in the (a) absence or (b) presence of activation cocktail (AC=50 μM ascorbic acid, 10 nM dexamethasone and 1 mM β-glycerophosphate). In separate experiments the cultures were incubated with the activation cocktail and additionally with (c) MeCl3, (d) polyP, or (e) polyP•Me. After incubation, the cell assays were stained with Alizarin Red S to assess the degree of […]. The diameter of the wells was 15 mm. FIG. 4 B: To quantitatively determine the HA mineralization in SaOS-2 cells, the cultures were assayed at the end of the incubation with Alizarin Red S (AR) in the spectrophotometric assay. […]\nThe intensity of the Alizarin Red colorimetric reaction at the used concentration range is proportional to the extent of mineralization (HA formation), as determined by using a calibration curve. The values measured (given in nmoles of Alizarin Red S bound) were normalized to the total amount of DNA (given in μg) which is proportional to cell number (the amount of DNA per cell is assumed to remain constant during the experiment). […]\nThe influence of trivalent cations on the extent of mineralization of SaOS-2 cells was determined in vitro using McCoy's medium/10% FCS and applying Alizarin Red S as a dye to monitor HA formation. […]"}, "SaOS-2 cells [5]": {"test_system": "SaOS-2 cells", "test": "SEM analysis of HA nodules", "details": "5 μM, activated cultures, 5 days", "procedure": "In this assay Me was Gd. 5 μM of each compound were added to the cells, and the cells were analysed by SEM. The cell cultures were incubated for 5 days either (A) in the absence or (B) in the presence of the activation cocktail. (C) and (F) show incubation of the activated cells with MeCl3; (D) and (G) show incubation of the activated cells with polyP, and (E) and (H) show incubation of the activated cells with polyP•Me. Some nodules (no) and cell layers (c) are marked.\nTo assure that the increased Alizarin Red S staining is due to a higher HA (Ca-phosphate) deposition SEM analyses were performed. In the absence of the activation cocktail no nodules could be identified on the cells (FIG. 7A). In contrast, if the cells were incubated with the cocktail for 5 days, distinct HA nodules could be identified (FIG. 7B). In the presence of the activation cocktail the cultures were incubated with MeCl3 (FIG. 7C), polyP (FIG. 7D), or both components together, as polyP•Me (FIG. 7E). It is apparent that the density of the nodules in activated cultures incubated with MeCl3 or with polyP alone was lower, compared to polyP•Me. At higher magnification it could be observed that the nodules consisted of irregularly arranged prism-like nanorods (FIGS. 7F to H). […]"}, "BMP2": {"test_system": "BMP2", "test": "qRT-PCR BMP2 gene expression", "details": "5 μM"}}}
{"smiles": "[Cl][Al]([Cl])[Cl]", "note": "[AlCl3]", "values": [{"measurement": "effect on number of SaOS-2 cells per well", "setting": "SaOS-2 cells [1]; 0.1 mM AlCl3 and higher", "value": "strong reduction"}]}
{"smiles": "[Cl][La]([Cl])[Cl]", "note": "[LaCl3]", "values": [{"measurement": "effect on number of SaOS-2 cells per well", "setting": "SaOS-2 cells [1]; 0.05 mM to 1 mM LaCl3", "value": "did not significantly affect"}, {"measurement": "effect on SaOS-2 cell number", "setting": "SaOS-2 cells [1]; very high concentration of LaCl3", "value": "strong drop"}, {"measurement": "HA formation", "setting": "SaOS-2 cells [2]; 0.05 mM LaCl3, absence of polyP, activation cocktail 7 days", "value": "marked increase"}, {"measurement": "stimulatory effect on HA formation", "setting": "SaOS-2 cells [2]; LaCl3 0.5 mM and higher, absence of polyP", "value": "not observed any more"}]}
{"smiles": "[Cl][Gd]([Cl])[Cl]", "note": "[MeCl3, GdCl3]", "values": [{"measurement": "viability/proliferation of SaOS-2 cells (development of the dye formazan)", "setting": "SaOS-2 cells [3]", "value": "did not change"}, {"measurement": "Alizarin Red S bound normalized to total DNA (HA mineralization)", "setting": "SaOS-2 cells [4]; 7 days after the addition of the activation cocktail", "value": "0.61 ± 0.08", "unit": "nmol/µg"}, {"measurement": "Alizarin Red S staining intensity / HA formation", "setting": "SaOS-2 cells [4]; in the presence of the activation cocktail, 7 d", "value": "intensified the staining intensity"}, {"measurement": "density of HA nodules compared to polyP•Me", "setting": "SaOS-2 cells [5]", "value": "lower"}, {"measurement": "BMP2 expression level versus day 5", "setting": "BMP2; 7 days", "value": "remained unchanged"}, {"measurement": "increase in steady-state expression of BMP2", "setting": "BMP2; day 5, normalized to GAPDH", "value": 1.4, "unit": "fold"}]}
